This note sets out measurements from US20260356840A1, “[1,2,4]TRIAZOLO[1,5-A]PYRIMIDINONE WRN INHIBITORS” (Nimbus Wadjet, Inc., priority 2023, published 2026).

A word on the IC50: it is the point on the concentration scale where inhibition reaches its midpoint.

T1 sequence (Q14191 517-1235 L1074F): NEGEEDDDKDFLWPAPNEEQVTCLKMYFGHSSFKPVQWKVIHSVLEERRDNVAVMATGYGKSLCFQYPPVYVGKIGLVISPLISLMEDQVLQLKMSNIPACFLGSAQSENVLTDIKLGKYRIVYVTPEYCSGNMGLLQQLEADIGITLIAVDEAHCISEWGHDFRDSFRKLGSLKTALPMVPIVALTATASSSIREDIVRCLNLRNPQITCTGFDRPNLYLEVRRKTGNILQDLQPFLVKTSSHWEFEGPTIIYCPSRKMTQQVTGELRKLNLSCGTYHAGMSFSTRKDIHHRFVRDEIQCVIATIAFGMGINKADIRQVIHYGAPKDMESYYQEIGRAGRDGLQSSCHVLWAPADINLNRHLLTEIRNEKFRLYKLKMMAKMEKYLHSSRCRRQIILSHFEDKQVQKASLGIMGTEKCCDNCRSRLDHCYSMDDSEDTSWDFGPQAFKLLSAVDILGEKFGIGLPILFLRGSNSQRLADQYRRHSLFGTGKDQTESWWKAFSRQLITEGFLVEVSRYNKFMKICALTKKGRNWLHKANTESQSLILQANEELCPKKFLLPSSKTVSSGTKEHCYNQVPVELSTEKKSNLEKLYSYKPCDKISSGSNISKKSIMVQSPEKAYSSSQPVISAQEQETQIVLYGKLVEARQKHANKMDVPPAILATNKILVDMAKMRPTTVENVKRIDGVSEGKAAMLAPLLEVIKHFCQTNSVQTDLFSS

The test addresses T1, human Werner helicase (Uniprot Q14191, amino acids 517-1235 with L1074F point mutation), WRN-BV08 (Homo sapiens, UniProt Q14191, L1074F).
T1 construct: Uniprot Q14191, amino acids 517-1235 with L1074F point mutation; TEV cleavable 8xHis tag (C, cleaved yes); made in house; host or cells: Sf9 insect cells (baculovirus, pFastBac)
Kind of test: WRN (BV08) ADP-Glo Assay. The test is classed as biochemical. The procedure:
DNA duplex was synthesized at BGI (Shenzhen, China) and was composed of strand 1 with the sequence 5′-[…]-3′ (SEQ ID NO.: 1) and strand 2 with the sequence 5′-[…]-3′ (SEQ ID NO.: 2). DNA strands were annealed by heating to 95 °C for 5 minutes followed by slow cooling to room temperature. […] DMSO (0.1 μl) was added to columns 12, rows A-H and column 24, rows I-P for the maximum signal control.
Where RLU=relative luminescence units, sample=signal in sample well, and MIN and MAX are the respective minimum and maximum signal controls. • Four-parameter IC50 fit equation:
Y=Bottom+(Top−Bottom)/(1+(IC50/X)^Hill Slope)
Where top and bottom are normally allowed to float but may be fixed at 100 or 0 respectively in a 3-parameter fit. Y is the % inhibition and X is the compound concentration.
Molecular Biology and virus production. […] The baculovirus from the expression plasmid WRN-BV08 was generated from transfection and amplification following the manufacturer's instructions.
Sf9 cells grown in SF900II media were infected with 1:200 WRN-BV08 P2 virus and incubated for protein expression for 72 h at 27 °C. The WRN protein was purified using the following protocol. The cell pellets were thawed and resuspended in buffer A (50 mM Tris, pH 7.5, 500 mM NaCl, 1 mM TCEP, 10% Glycerol) supplemented with 0.5% CHAPS, 1 mM [COMPOUND LEFT OUT], 1 μg/ml Leupeptin, 1 μg/ml Pepstatin, and the Pierce Universal Nuclease and cocktail tablet. Cleared lysates were loaded onto a Ni Sepharose™ excel column and washed with buffer A and bound protein was eluted with buffer A supplemented with 300 mM imidazole. The eluted protein was dialyzed against buffer A and digested by His-tagged TEV (1:5 ratio) overnight at 4 °C. […] Untagged WRN protein was eluted from the column with buffer A supplemented with 20 mM imidazole, dialyzed overnight into buffer B (50 mM Tris, pH 7.5, 1 mM TCEP, 10% Glycerol) supplemented with 150 mM NaCl and loaded onto a Heparin column. Proteins were eluted with a step gradient of buffer B supplemented with 150 mM, 200 mM, 300 mM and 500 mM NaCl.
In turn, `CCc1c(N2CCN(C(=O)c3ncnc(C)c3O)CC2)c(=O)n2nc(-c3cc(C)nc(OC)c3)nc2n1CC(=O)Nc1ccc(C(F)(F)F)cc1Cl` [Compound I-43, N-[2-chloro-4-(trifluoromethyl)phenyl]-2-{5-ethyl-6-[4-(5-hydroxy-6-methylpyrimidine-4-carbonyl)piperazin-1-yl]-2-(2-methoxy-6-methylpyridin-4-yl)-7-oxo-4H,7H-[1,2,4]triazolo[1,5-a]pyrimidin-4-yl}acetamide] registered an IC50 of 5 to 50 nM.

`CCc1c(N2CCN(C(=O)c3c(F)cccc3F)CC2)c(=O)n2nc(C3=CCOCC3)nc2n1CC(=O)Nc1ccc(C(F)(F)F)cc1Cl` [Compound I-10, N-[2-chloro-4-(trifluoromethyl)phenyl]-2-{6-[4-(2,6-difluorobenzoyl)piperazin-1-yl]-2-(3,6-dihydro-2H-pyran-4-yl)-5-ethyl-7-oxo-4H,7H-[1,2,4]triazolo[1,5-a]pyrimidin-4-yl}acetamide]: the IC50 is 5 to 50 nM.

On to `CCc1c(N2CCN(C(=O)c3cnn(C)c3)CC2)c(=O)n2nc(-c3cnc(OC)nc3)nc2n1CC(=O)Nc1ccc(C(F)(F)F)cc1Cl` [Compound I-51, N-[2-chloro-4-(trifluoromethyl)phenyl]-2-[5-ethyl-2-(2-methoxypyrimidin-5-yl)-6-[4-(1-methyl-1H-pyrazole-4-carbonyl)piperazin-1-yl]-7-oxo-4H,7H-[1,2,4]triazolo[1,5-a]pyrimidin-4-yl]acetamide], for which the concentration for half-maximal inhibition (IC50) is 5 to 50 nM.

With `CCc1c(N2CCN(C(=O)c3cnn(C)c3)[C@H](C)C2)c(=O)n2nc(-c3ccnc(OC)c3)nc2n1CC(=O)Nc1ccc(C(F)(F)F)cc1Cl` [Compound I-77, N-[2-chloro-4-(trifluoromethyl)phenyl]-2-[5-ethyl-2-(2-methoxypyridin-4-yl)-6-[(3R)-3-methyl-4-(1-methyl-1H-pyrazole-4-carbonyl)piperazin-1-yl]-7-oxo-4H,7H-[1,2,4]triazolo[1,5-a]pyrimidin-4-yl]acetamide], the IC50 lay within 5 to 50 nM.

Take `CCc1c(N2CCN(C(=O)c3cnn(C)c3)CC2)c(=O)n2nc(-c3cc(OC)ccn3)nc2n1CC(=O)Nc1ccc(C(F)(F)F)cc1Cl` [Compound I-69, N-[2-chloro-4-(trifluoromethyl)phenyl]-2-[5-ethyl-2-(4-methoxypyridin-2-yl)-6-[4-(1-methyl-1H-pyrazole-4-carbonyl)piperazin-1-yl]-7-oxo-4H,7H-[1,2,4]triazolo[1,5-a]pyrimidin-4-yl]acetamide]: the IC50 was in the range of 5 to 50 nM.

In the case of `CCc1c(N2CCN(C(=O)c3sccc3O)CC2)c(=O)n2nc(C3=CCOCC3)nc2n1CC(=O)Nc1ccc(C(F)(F)F)cc1Cl` [Compound I-6, N-[2-chloro-4-(trifluoromethyl)phenyl]-2-[2-(3,6-dihydro-2H-pyran-4-yl)-5-ethyl-6-[4-(3-hydroxythiophene-2-carbonyl)piperazin-1-yl]-7-oxo-4H,7H-[1,2,4]triazolo[1,5-a]pyrimidin-4-yl]acetamide], the IC50 fell in the range of 5 to 50 nM.

The compound `CCc1c(N2CCN(C(=O)c3cnn(C)c3)CC2)c(=O)n2nc(C3=CCOCC3)nc2n1CC(=O)Nc1ccc(C(F)(F)F)cc1Cl` [Compound I-23, N-[2-chloro-4-(trifluoromethyl)phenyl]-2-[2-(3,6-dihydro-2H-pyran-4-yl)-5-ethyl-6-[4-(1-methyl-1H-pyrazole-4-carbonyl)piperazin-1-yl]-7-oxo-4H,7H-[1,2,4]triazolo[1,5-a]pyrimidin-4-yl]acetamide] gave an IC50 of 5 to 50 nM.

Take `CCc1c(N2CCN(C(=O)c3cnc(C)o3)CC2)c(=O)n2nc(-c3ccnc(OC)c3)nc2n1CC(=O)Nc1ccc(C(F)(F)F)cc1Cl` [Compound I-67, N-[2-chloro-4-(trifluoromethyl)phenyl]-2-[5-ethyl-2-(2-methoxypyridin-4-yl)-6-[4-(2-methyl-1,3-oxazole-5-carbonyl)piperazin-1-yl]-7-oxo-4H,7H-[1,2,4]triazolo[1,5-a]pyrimidin-4-yl]acetamide]: the IC50 was 5 to 50 nM.

Compound `CCc1c(N2CCN(C(=O)c3ncnc(C)c3O)CC2)c(=O)n2nc(-c3ccc(OC)nc3)nc2n1CC(=O)Nc1ccc(C(F)(F)F)cc1Cl` [Compound I-22, N-[2-chloro-4-(trifluoromethyl)phenyl]-2-{5-ethyl-6-[4-(5-hydroxy-6-methylpyrimidine-4-carbonyl)piperazin-1-yl]-2-(6-methoxypyridin-3-yl)-7-oxo-4H,7H-[1,2,4]triazolo[1,5-a]pyrimidin-4-yl}acetamide] yielded an IC50 of 5 to 50 nM.

Regarding `CCc1c(N2CCN(C(=O)c3ncc4c(c3O)OCC4)CC2)c(=O)n2nc(-c3ccnc(OC)c3)nc2n1CC(=O)Nc1ccc(C(F)(F)F)cc1Cl` [Compound I-86, N-[2-chloro-4-(trifluoromethyl)phenyl]-2-[5-ethyl-6-(4-{7-hydroxy-2H,3H-furo[3,2-c]pyridine-6-carbonyl}piperazin-1-yl)-2-(2-methoxypyridin-4-yl)-7-oxo-4H,7H-[1,2,4]triazolo[1,5-a]pyrimidin-4-yl]acetamide], the IC50 is under 5 nM.

`CCc1c(N2CCN(C(=O)c3ccnc(OC)c3O)CC2)c(=O)n2nc(-c3ccnc(OC)c3)nc2n1CC(=O)Nc1ccc(C(F)(F)F)cc1Cl` [Compound I-80, N-[2-chloro-4-(trifluoromethyl)phenyl]-2-{5-ethyl-6-[4-(3-hydroxy-2-methoxypyridine-4-carbonyl)piperazin-1-yl]-2-(2-methoxypyridin-4-yl)-7-oxo-4H,7H-[1,2,4]triazolo[1,5-a]pyrimidin-4-yl}acetamide] showed an IC50 of 5 to 50 nM.

`CCc1c(N2CCN(C(=O)c3ccnc4cccnc34)CC2)c(=O)n2nc(C3=CCOCC3)nc2n1CC(=O)Nc1ccc(C(F)(F)F)cc1Cl` [Compound I-37, N-[2-chloro-4-(trifluoromethyl)phenyl]-2-[2-(3,6-dihydro-2H-pyran-4-yl)-5-ethyl-6-[4-(1,5-naphthyridine-4-carbonyl)piperazin-1-yl]-7-oxo-4H,7H-[1,2,4]triazolo[1,5-a]pyrimidin-4-yl]acetamide]: the 50% inhibitory concentration (IC50) is 5 to 50 nM.

Compound `CCc1c(N2CCN(C(=O)c3ccnn3C)CC2)c(=O)n2nc(-c3ccnc(OC)c3)nc2n1CC(=O)Nc1ccc(C(F)(F)F)cc1Cl` [Compound I-66, N-[2-chloro-4-(trifluoromethyl)phenyl]-2-[5-ethyl-2-(2-methoxypyridin-4-yl)-6-[4-(1-methyl-1H-pyrazole-5-carbonyl)piperazin-1-yl]-7-oxo-4H,7H-[1,2,4]triazolo[1,5-a]pyrimidin-4-yl]acetamide] came in with an IC50 of 5 to 50 nM.

For `CCc1c(N2CCN(C(=O)c3cnn(C)c3)CC2)c(=O)n2nc(-c3cc(OC)ncn3)nc2n1CC(=O)Nc1ccc(C(F)(F)F)cc1Cl` [Compound I-71, N-[2-chloro-4-(trifluoromethyl)phenyl]-2-[5-ethyl-2-(6-methoxypyrimidin-4-yl)-6-[4-(1-methyl-1H-pyrazole-4-carbonyl)piperazin-1-yl]-7-oxo-4H,7H-[1,2,4]triazolo[1,5-a]pyrimidin-4-yl]acetamide], the IC50 was in the range of 5 to 50 nM.

Take `CCc1c(N2CCN(C(=O)c3nnn(C)n3)CC2)c(=O)n2nc(-c3ccnc(OC)c3)nc2n1CC(=O)Nc1ccc(C(F)(F)F)cc1Cl` [Compound I-74, N-[2-chloro-4-(trifluoromethyl)phenyl]-2-[5-ethyl-2-(2-methoxypyridin-4-yl)-6-[4-(2-methyl-2H-1,2,3,4-tetrazole-5-carbonyl)piperazin-1-yl]-7-oxo-4H,7H-[1,2,4]triazolo[1,5-a]pyrimidin-4-yl]acetamide]: the IC50 fell in the range of 5 to 50 nM.

On to `CCc1c(N2CCN(C(=O)c3ccnc(C)c3O)CC2)c(=O)n2nc(C3=CCOCC3)nc2n1CC(=O)Nc1ccc(C(F)(F)F)cc1Cl` [Compound I-5, N-[2-chloro-4-(trifluoromethyl)phenyl]-2-[2-(3,6-dihydro-2H-pyran-4-yl)-5-ethyl-6-[4-(3-hydroxy-2-methylpyridine-4-carbonyl)piperazin-1-yl]-7-oxo-4H,7H-[1,2,4]triazolo[1,5-a]pyrimidin-4-yl]acetamide], for which the IC50 lay within 5 to 50 nM.

For `CCc1c(N2CCN(C(=O)c3c(O)cccc3OC)CC2)c(=O)n2nc(C3=CCOCC3)nc2n1CC(=O)Nc1ccc(C(F)(F)F)cc1Cl` [Compound I-4, N-[2-chloro-4-(trifluoromethyl)phenyl]-2-[2-(3,6-dihydro-2H-pyran-4-yl)-5-ethyl-6-[4-(2-hydroxy-6-methoxybenzoyl)piperazin-1-yl]-7-oxo-4H,7H-[1,2,4]triazolo[1,5-a]pyrimidin-4-yl]acetamide], the IC50 was in the range of 5 to 50 nM.
